Experiment: RP, Thermo Scientific Acclaim RSLC 120 C18, 100 × 2.1 mm, 2.2 µm, 30 °C, 0.2 mL/min, estimated dead time 1.1 min; A: 90% water + 10% methanol + 0.01% formic acid + 5 mM ammonium formate, pH 3.61; B: methanol + 0.01% formic acid + 5 mM ammonium formate, pH 3.61; gradient (min/%B) 0/1 1/1 2/39 13/99.9 15/99.9 15.1/1 20.1/1
Conditions: stereoisomer not certain

Row | Compound | LC retention time [min]
1 | CCNC(C)C(=O)c1ccc2c(c1)OCO2 (centres undefined) [Ethylone] | 4.04
2 | Cc1cc(C(C)(C)C)cc(C)c1CC1=NCCN1 [Xylometazoline] | 7.75
3 | CCOC(=O)CCN(Cc1ccccc1)SN(C)C(=O)ON=C(C)SC [Alanycarb] | 10.8
4 | COc1nn(CSP(=S)(OC)OC)c(=O)s1 [Methidathion] | 8.7
5 | CCCCCCCn1cc(C(=O)c2cccc3ccccc23)c2ccccc21 [JWH-020] | 13.4
6 | CC1=C(C(=O)Nc2ccccc2)S(=O)(=O)CCO1 [Carboxin-Oxy] | 5.59
7 | c1cc2c(c(NC3=NCCN3)c1)CCC2 [Indanazoline] | 4.76
8 | O=C(O)c1cc(Oc2ccc(C(F)(F)F)cc2Cl)ccc1[N+](=O)[O-] [Acifluorfen] | 8.95
9 | CCNC1C2CCC(C2)C1c1ccccc1 (centres undefined) [Fencamfamine] | 6.08
10 | C#CC1(O)C=CC2C3CCC4=CC(=O)CCC4C3CCC21CC (centres undefined) [Gestoden] | 9.46
11 | CC12CCC3C(CC=C4CC(O)CCC43C)C1CCC2=O (centres undefined) [Dhydroepiandrosterone (DHEA) / Androstenolone] | 10.2
12 | Clc1nc(Cl)nc(Nc2ccccc2Cl)n1 [Anilazine (Dyrene)] | 9.74
13 | CCCN(CC)CC1COC2(CCC(C(C)(C)C)CC2)O1 (centres undefined) [Spiroxamine] | 9.32
14 | COC(=O)C(NC(=O)c1nn(Cc2ccc(F)cc2)c2ccccc12)C(C)C (centres undefined) [FUB-AMB] | 10.8
15 | CCSC(=O)N1CCCCCC1 [Molinate] | 9.89
16 | CCC(=C(c1ccccc1)c1ccc(OCCN(C)C)cc1)c1ccccc1 [Tamoxifen] | 11
17 | CN1C(=O)C(O)N=C(c2ccccc2Cl)c2cc(Cl)ccc21 (centres undefined) [Lormetazepam] | 8.61
18 | OC(Cc1ccccc1Cl)(Cn1[nH]cnc1=S)C1(Cl)CC1 (centres undefined) [Prothioconazole] | 11.2
19 | COc1ccccc1CC(=O)c1cn(CCC2CCCCC2)c2ccccc12 [RCS-8] | 13
20 | CN(C)C(=O)OC1N=C(c2ccccc2)c2cc(Cl)ccc2N(C)C1=O (centres undefined) [Camazepam] | 10
21 | CCOc1cc(C(C)(C)C)ccc1C1COC(c2c(F)cccc2F)=N1 (centres undefined) [Etoxazole] | 12.8
22 | O=C(Nc1ccccc1-c1ccc(Cl)cc1)c1cccnc1Cl [Boscalid] | 9.4

Row | Compound | LC retention time [min]
23 | CCCCCn1nc(C(=O)Oc2cccc3cccnc23)c2ccccc21 [NPB-22] | 11.4
24 | CC(C)C(O)(c1ccc(OC(F)(F)F)cc1)c1cncnc1 (centres undefined) [Flurprimidol] | 9.62
25 | CCOP(=S)(OCC)SCSCC [Phorate] | 11.4
26 | CC(F)CCCn1cc(C(=O)C2C(C)(C)C2(C)C)c2ccccc21 (stereo not drawn) [XLR-11 Isomer] | 11.6
27 | CCOC(=O)CCN(SN(C)C(=O)Oc1cccc2c1OC(C)(C)C2)C(C)C [Benfuracarb] | 11.9
28 | CNC(=O)Oc1cc(C)c(S(C)(=O)=O)c(C)c1 [Methiocarb-sulfone] | 5.28
29 | CNC(=O)ON=CC(C)(C)S(C)(=O)=O [Aldicarb-sulfone (Aldoxycarb)] | 3.75
30 | CC(C)C(NC(=O)c1cn(CCCCCF)c2ccccc12)C(N)=O (centres undefined) [ABICA-5F] | 8.93
31 | CC1CCCC(C)N1NC(=O)c1ccc(Cl)c(S(N)(=O)=O)c1 (centres undefined) [Clopamide] | 6.01
32 | CCCCCn1cc(C(=O)Nc2ccccc2)c2ccccc21 [SDB-006 N-phenyl] | 11.3
33 | CCc1c(C)[nH]c2c1C(=O)C(CN1CCOCC1)CC2 (centres undefined) [Molindone] | 4.89
34 | CCCC(C(=O)c1ccc2ccccc2c1)N1CCCC1 (centres undefined) [Naphyrone] | 7.33
35 | O=C(NC12CC3CC(CC(C3)C1)C2)c1cn(CCCCCF)c2ccccc12 [STS-135] | 12.2
36 | c1cc[c]([Sn+]([c]2ccccc2)[c]2ccccc2)cc1 [Fentin (triphenylstannylium) (1+)] | 10.4
37 | CN(C)C1C(=O)C(C(N)=O)=C(O)C2(O)C(=O)C3=C(O)c4c(O)cccc4C(C)(O)C3CC12 (centres undefined) [Tetracycline] | 4.7
38 | C[N+](C)([O-])CCCC1(c2ccc(F)cc2)OCc2cc(C#N)ccc21 (centres undefined) [Citalopram N-oxide] | 7.1
39 | CN(C)C(=O)SCCCCOc1ccccc1 [Fenothiocarb] | 10.7
40 | C=C(C)C1Cc2c(ccc3c2OC2COc4cc(OC)c(OC)cc4C2C3=O)O1 (centres undefined) [Rotenone] | 10.5
41 | CCC(=O)OC(Cc1ccccc1)(c1ccccc1)C(C)CN(C)C (centres undefined) [Dextropropoxyphene] | 7.73
42 | CCCCC(C#N)(Cn1cncn1)c1ccc(Cl)cc1 (centres undefined) [Myclobutanil] | 9.74
43 | CC1(C)C(C(=O)c2cn(CCCCCF)c3ccccc23)C1(C)C [XLR-11] | 11.9
44 | CC(C)CC(C)Nc1ccc(Nc2ccccc2)cc1 (centres undefined) [Diphenylamin-4-(dimethylbutylamino) (6PPD)] | 9.92

Results, then the compound that gave them:

Row | LC retention time [min] | Compound
45 | 9.82 | COc1ccc2cc(CCC(C)=O)ccc2c1 [Nabumetone]
46 | 14.2 | COC1CC(OC2C(C)OC(OC3C(C)=CCC4CC(CC5(CCC(C)C(C(C)C)O5)O4)OC(=O)C4C=C(C)C(O)C5OCC(=CC=CC3C)C45O)CC2OC)OC(C)C1O (centres undefined) [Ivermectin B1b]
47 | 8.36 | CCOC(=O)C1=C(COCCN)NC(C)=C(C(=O)OC)C1c1ccccc1Cl (centres undefined) [Amlodipine]
48 | 6.98 | CC(C)N=C(N)N=C(N)Nc1ccc(Cl)cc1 [Proguanil]
49 | 6.98 | CN(CCOc1ccc(CC2SC(=O)NC2=O)cc1)c1ccccn1 (centres undefined) [Rosiglitazone]
50 | 10.6 | COC(=O)C1=C(C)NC(C)=C(C(=O)OCC(C)C)C1c1ccccc1[N+](=O)[O-] (centres undefined) [Nisoldipine]
51 | 9.27 | CN(C)CCCN1c2ccccc2Sc2ccc(C(F)(F)F)cc21 [Triflupromazine]
52 | 7.19 | CCc1cccc(CC)c1N(COC)C(=O)CS(=O)(=O)O [Alachlor-ESA]
53 | 5.21 | Cc1c(N(C)C)c(=O)n(-c2ccccc2)n1C [Aminophenazone. Amidopyrin]
54 | 9.49 | CCCOc1ccc(S(=O)(=O)N2CCN(CCO)CC2)cc1-c1nc2c(CCC)cn(CC)c2c(=O)[nH]1 [Mirodenafil]
55 | 8.92 | CCN(CC)CC#CCOC(=O)C(O)(c1ccccc1)C1CCCCC1 (centres undefined) [Oxybutynin]
56 | 5.86 | CN(C)CCN(Cc1ccccc1)c1ccccn1 [Pyribenzamine (Tripelenamine. Azaron)]
57 | 3.88 | NC(=O)c1c(Cl)c(Cl)cc(C(=O)O)c1Cl
58 | 9.09 | CCc1ccc(CCOc2ccc(CC3SC(=O)NC3=O)cc2)nc1 (centres undefined) [Pioglitazone]
59 | 5.36 | COc1ccc2[nH]cc(CCNC(C)=O)c2c1 [Melatonin]
60 | 8.79 | CN(C)CCC=C1c2ccccc2C(C)(C)c2ccccc21 [Melitracen]
61 | 3.58 | Cc1nc([N+](=O)[O-])cn1CCO [Metronidazole]
62 | 6.8 | CC1(C)SC2C(NC(=O)COc3ccccc3)C(=O)N2C1C(=O)O (centres undefined) [Penicillin V]
63 | 12.3 | Clc1ccc(C(Cn2ccnc2)OCc2c(Cl)cccc2Cl)c(Cl)c1 (centres undefined) [Isoconazole]
64 | 5.09 | CN1C2CCC1CC(OC(=O)c1c[nH]c3ccccc13)C2 (centres undefined) [Tropisetron]

Row | LC retention time [min] | Compound
65 | 4.17 | CC(C)[N+]1(C)C2CCC1CC(OC(=O)C(CO)c1ccccc1)C2 (centres undefined) [Ipratropium]
66 | 6.99 | Cc1cc(C(C)(C)C)c(O)c(C)c1CC1=NCCN1 [Oxymetazoline]
67 | 5.01 | CC(C)(C)NCC(O)COc1cc(C(=O)O)ccc1Cl (centres undefined) [Bupranolol- 5-Carboxy]
68 | 1.39 | CN(C)C(=N)N=C(N)N [Metformin]
69 | 8.38 | Cc1c(OCC(F)(F)F)ccnc1CS(=O)c1nc2ccccc2[nH]1 (centres undefined) [Lansoprazole]
70 | 6.12 | CC(CCN1CCOCC1)OC(=O)C1(c2ccccc2)CCOCC1 (centres undefined) [Fedrilate]
71 | 4.98 | Cc1nccn1CC1CCc2c(c3ccccc3n2C)C1=O (centres undefined) [Ondansetron]
72 | 8.23 | CCOC(=O)C(CCc1ccccc1)NC(C)C(=O)N1CC2(CC1C(=O)O)SCCS2 (centres undefined) [Spirapril]
73 | 6.99 | CCCc1nn(C)c2c(=O)[nH]c(-c3cc(C(=O)CN4CCN(C)CC4)ccc3OCC)nc12 [Acetildenafil-Nor]
74 | 10.1 | O=S(=O)(Oc1ccc(Cl)cc1)c1ccccc1 [Fenson]
75 | 6.67 | CSc1ccc(C(=O)c2[nH]c(=O)[nH]c2C)cc1 [Enoximon]
76 | 8.08 | CN(C)CCCN1c2ccccc2CCc2ccccc21 [Imipramine]
77 | 10.8 | Fc1cccc(F)c1-c1nnc(-c2ccccc2Cl)nn1 [Flufenzine (Diflovidazin)]
78 | 7.01 | CN(C)CCC=C1c2ccccc2COc2ccccc21 [Doxepin]
79 | 7.68 | CCCCNC(=O)NS(=O)(=O)c1ccc(C)cc1 [Tolbutamide]
80 | 8.18 | COC=C(C(=O)O)c1ccccc1Oc1cc(Oc2ccccc2C#N)ncn1 [Azoxystrobin acid]
81 | 7.81 | CCCNCC(O)COc1ccccc1C(=O)CCc1ccccc1 (centres undefined) [Propafenone]
82 | 12.2 | CCOCCOC(=O)C(C)Oc1ccc(Oc2ncc(C(F)(F)F)cc2Cl)cc1 (centres undefined) [Haloxyfop ethoxyethyl ester]
83 | 7.01 | CCCc1nn(C)c2c(=O)[nH]c(-c3cc(C(=O)CN4CCN(CC)CC4)ccc3OCC)nc12 [Acetildenafil]
84 | 6.09 | O=C(O)CCC(=O)c1ccc(F)cc1 [4-Fluorobenzoylpropionic acid]

From the RepoRT retention time repository (doi:10.1021/acs.analchem.2c02893)
